Data taken from a melting point compilation (Tetko et al.; mined from patent text by program, amines drawn as free bases though some values may be those of a salt).

SMILES	melting point [°C]
CCOCc1nc2c(N)nc3cccnc3c2n1CC(C)(C)NC(=O)C(C)C	154 to 156
O=C(Nc1cccc(Nc2ccc3c(c2)NC(=O)C3=Cc2ccc[nH]2)c1)Nc1cccc(C(F)(F)F)c1	253 to 256
CN1CCC(=C2c3ccsc3C(O)Cn3ccnc32)CC1 (stereo not given)	230
CCCCn1c(=O)c2c(ncn2S(=O)(=O)Cc2ccccc2)n(CCCC)c1=O	117 to 118
CCCCCc1scc2c1n(C(=O)OC)c(=O)n2C(=O)OC	99 to 102
COc1sc(S(=O)(=O)C[N+](=O)[O-])cc1Br	120 to 121
CC(C)(C)OC(=O)N1CCC[C@H]1C(=O)O[C@H]1CO[C@H]2[C@H]1OC[C@H]2O[N+](=O)[O-]	109 to 111
Cc1cccc(-c2[nH]c(C(C)(C)C)nc2-c2ccnc(-c3ccc(CN(C)C)cc3)c2)n1	187
NCCCOc1ccc(-c2nnc(CSCCOc3ccccc3)o2)cc1	30 to 35
O=C(Nc1ccc2ccc(Oc3ccccc3)nc2n1)c1cccs1	176
COc1ccc(OC)c(C2(Cl)C(=O)Nc3ccc(Cl)cc32)c1 (stereo not given)	157
CCc1c(C(=O)C(N)=O)c2c(OCC(=O)OC)cc3c(c2n1Cc1ccccc1)CCCC3	51 to 53
O=c1oc(-c2ccc([N+](=O)[O-])cc2)nn1-c1ccc(C(F)(F)F)cc1	160 to 163
Cc1cccc(C)c1N1CCCCS/C1=N/N=C\c1ccc(-c2ncn(-c3ccc(OC(F)(F)F)cc3)n2)cc1	100 to 106
C=CS(=O)(=O)CC(COCCCCCCCCCCCCCCCCCC)OC (stereo not given)	47 to 49
Oc1ccc(-c2ncn(CC(O)(Cn3cncn3)c3ccc(F)cc3F)n2)cc1 (stereo not given)	120 to 127
COc1ccc(N=C2C=CC(=O)C=C2)c(CO)c1	87 to 89
COc1ccc2nc(Oc3c(Cl)cc(N)cc3Cl)sc2c1	158 to 160
Nc1cc(C(F)(F)F)nc(C(F)(F)F)c1	147 to 149
FC(F)(F)COc1ccc(Cc2ccncc2)cc1	51 to 53
CCCCCCCCCCCCCCCCCCOc1cc(N(CC(=O)O)CC(=O)O)cc(S(C)=O)c1 (stereo not given)	147 to 149
O=C1Cn2ncnc2-c2cc(F)ccc2N1	232 to 238

SMILES	melting point [°C]
CCOC(=O)C1CC(=O)c2cc(C(C)(C)C)cc(C(C)(C)C)c2O1 (stereo not given)	61 to 63
C=C(Br)c1cc(O)cc2nc(-c3ccc(O)c(F)c3F)oc12	240 to 242
CCC1N=C(c2ccccc2Cl)c2cc(CC(=O)OC)sc2-n2c(C)nnc21 (stereo not given)	134 to 137
c1cc(-n2cccn2)cc(-n2cnc3cc(-c4ccoc4)ccc32)c1	170 to 173
O=C(O[C@H]1Cc2c(O)cc(O)cc2O[C@@H]1c1ccc(O)cc1)c1cc(O)c(O)c(O)c1	96 to 98
CCOC(=O)c1cn(C2CC2)c2c(F)c(F)c(F)cc2c1=O	167 to 168
O=S(=O)(c1ccc(Nc2nccc(-c3ccc(C(F)(F)F)cc3)n2)cc1)N1CCOCC1	240 to 241
Fc1cc(F)c2nc(CCC#Cc3ccccn3)cn2c1	130 to 131
CC(C)n1nc(-c2c(-c3ccccc3)nn3ccc(OCCN4CCOCC4)cc23)ccc1=O	160 to 162
OCc1ncc2n1-c1ccc(Cl)cc1C(c1ccccc1F)=NC2	258 to 260
CCCC(CCC)n1c(CC)nc2[nH]c(=O)n(C)c(=O)c21	152 to 153
COc1c(N2CCC(n3cc(C)nn3)C2)c(F)c(N)c2c(=O)c(C(=O)O)cn(C3CC3)c12 (stereo not given)	256
CCOC(=O)CN(SN(C)C(=O)Oc1cccc2c1OC(C)(C)C2)c1ccccc1	92 to 93
COc1nscc1[N+](=O)[O-]	118 to 122
NS(=O)(=O)c1ccc(-c2cn(-c3nc(-c4ccc(Cl)cc4)cc(C(F)(F)F)n3)cn2)cc1	324
Cc1nc(C)c(-c2ccnc(Nc3cccc([N+](=O)[O-])c3)n2)s1	176 to 178
COC(=O)c1ccc(COc2c(C)c(C)c3c(c2C)C(c2ccc(C(C)C)cc2)C(C)(C)O3)cc1 (stereo not given)	108 to 110
COc1ccc(-c2cc3cc(F)c(F)cc3[nH]2)cc1NC(=S)N[C@@H](COC(C)(C)C)C(=O)OC(C)(C)C	111 to 114
CC(C)(CCC#N)c1ccc(C(=O)Nc2cn3cc(-n4ccnc4)ccc3n2)cc1	233 to 234
c1cn(Cc2ccc3c(c2)-c2[nH]nc(-c4ccsc4)c2C3)nn1	249 to 252
Cc1cc(Cl)n2nc(SCc3ccccc3)nc2c1	108 to 110
OC1(c2ccc(Cl)cc2)CCN(CCCc2noc3cc(F)ccc23)CC1	142 to 145

The next lines start with the values.

melting point [°C]	SMILES
108 to 110	CCOC(=O)c1cnc2n(c1=O)CCC(C)C2=NNc1ccccc1 (stereo not given)
72 to 74	CC1=CC(OC(=O)C=Cc2ccc(N)cc2)C(O)C(C)(C)CC1=O (stereo not given)
206 to 208	CN=C(NS(=O)(=O)c1ccc(C)cc1)N1CCc2nc(N)sc2C1
122 to 123	O=Cc1ccc(CNc2ccccn2)c(Cl)c1
285 to 287	O=C(O)c1ccc2c(c1)S(=O)(=O)c1ccccc1C2=O
129 to 130	CC(C)c1cc(Oc2ccc(Cl)cc2C(=O)O)cc(C(C)C)c1
131 to 133	CCN(CC)C(=O)CCCN(C(=O)Nc1cc(OC)cc(C(C)(C)C)c1O)c1ccccc1
188 to 191	O=C(Nc1ncco1)C1c2ccccc2Sc2ccccc21
> 250	O=C1CCCCc2cc(Cl)c(Cl)cc21
92 to 100	CCCn1cc(Cc2ccc(C(=O)O)cc2OC)c2cc(CC(C)C(=O)N3CCCC3)ccc21 (stereo not given)
112 to 113	Cc1cc2c3c(ccn2n1)CCC3CCNC(=O)C1CC1 (stereo not given)
121 to 123	CC(C)(C)OC(=O)NCc1cccc(C=CC(=O)O)c1
163 to 166	Cc1nc(NC(=O)c2ccccc2)sc1C(=O)NCC1CC1
183 to 185	COc1cc(N2CCN(C(=O)Cn3nc(C#N)c4cccnc43)CC2)ccc1Cl
173 to 175	O=C(CCl)NC(C(=O)O)c1ccc2c(c1)CCS2 (stereo not given)
175	CCCCOc1ccc(S(=O)(=O)C2(C(=O)O)CCN(Cc3cccc(OC)c3)CC2)cc1
105 to 107	Cc1cc(S(=O)(=O)N(C)CC(O)(CCl)c2ccccc2)ccc1Cl (stereo not given)
238 to 239	O=C(CCc1ccccc1C(=O)O)Nc1cccc(/C=C/c2nc(C3CCC3)cs2)c1
227 to 228	CCOC(=O)c1cn2c3c(cc(Br)cc3c1=O)CC2(C)C
87 to 89	O=C(Nc1cccc(C(F)(F)F)c1)C(=O)N1CCC(Cc2ccccc2)CC1
213 to 215	CCOC(=O)c1cn2c3c(cc(CN4CCOCC4)cc3c1=O)OC(c1ccccc1)C2 (stereo not given)
222 to 225	COc1cccc2c1C(=O)c1c(cc3c(c1O)CCC(C(C)=O)C3)C2=O (stereo not given)
50 to 55	O=C(CC1(Sc2ccc(Oc3ccc(Cl)cc3)cc2)CCOCC1)NO
184	CC(C)c1ccc(NC(=O)C2CCCc3c(OCc4ccccc4)ccc(F)c32)cn1 (stereo not given)
215 to 217	O=C(O)c1cnc2n(c1=O)CCc1ccccc1-2
178 to 180	Cn1cc(C=O)cc1C(=O)O
